pEC50: −log10 of the molar value.
Columns and labels:
[1] = Inhibition of HIV1 RES056 reverse transcriptase K103N/Y181C double mutant infected in human MT4 cells assessed as protection against virus-induced cytopathic effect measured at 5 days post infection by MTT assay
[2] = Inhibition of HIV-1 reverse transcriptase E138K mutant infected in human MT4 cells assessed as protection against virus-induced cytopathic effect measured at 5 days post infection by MTT assay

| Structure (SMILES) | pEC50 [1] | pEC50 [2] |
| --- | --- | --- |
| N#Cc1ccc(Nc2nccc(OCc3ccc(Br)cc3)n2)cc1 | < 4.80 | < 4.80 |
| N#Cc1ccc(Nc2nccc(OCc3cccc(C(F)(F)F)c3)n2)cc1 | < 3.93 | < 3.93 |
| COc1cc(COc2ccnc(Nc3ccc(C#N)cc3)n2)cc(OC)c1 | < 4.36 | 6.64 |
| N#Cc1ccc(Nc2nccc(OCc3ccc(Br)cc3F)n2)cc1 | < 3.85 | 4.45 |
| N#Cc1ccc(Nc2nccc(OCc3ccccc3C#N)n2)cc1 | < 3.95 | < 3.95 |
| N#Cc1ccc(Nc2nccc(OCc3cccc(C#N)c3)n2)cc1 | < 5.39 | < 5.39 |
| N#Cc1ccc(Nc2nccc(OCc3ccccc3)n2)cc1 | < 4.89 | 5.74 |
| N#Cc1ccc(Nc2nccc(OCc3cccc4ccccc34)n2)cc1 | < 5.11 | 6.52 |
| N#Cc1ccc(Nc2nccc(OCc3ccc4ccccc4c3)n2)cc1 | < 3.67 | 5.00 |
| N#Cc1ccc(Nc2nccc(NCc3ccccn3)n2)cc1 | < 5.07 | 6.62 |
| Cc1cc(C)nc(Sc2ccnc(Nc3ccc(C#N)cc3)n2)n1 | < 3.65 | < 3.65 |
| N#Cc1ccc(Nc2nccc(OCc3ccccc3Cl)n2)cc1 | < 3.84 | < 3.84 |
| N#Cc1ccc(Nc2nccc(OCc3cccc(Cl)c3)n2)cc1 | < 3.82 | < 3.82 |
| N#Cc1ccc(Nc2nccc(OCc3ccccc3Br)n2)cc1 | < 3.89 | < 3.89 |
| N#Cc1ccc(Nc2nccc(OCc3cccc(Br)c3)n2)cc1 | < 3.66 | 5.30 |
| N#Cc1ccc(Nc2nccc(OCc3ccccc3F)n2)cc1 | < 3.82 | 6.52 |
| N#Cc1ccc(Nc2nccc(OCc3ccc(F)cc3)n2)cc1 | < 4.09 | < 4.09 |
| Cc1ccccc1COc1ccnc(Nc2ccc(C#N)cc2)n1 | < 4.92 | < 4.92 |
| Cc1cccc(COc2ccnc(Nc3ccc(C#N)cc3)n2)c1 | < 4.52 | 5.93 |
| COc1ccccc1COc1ccnc(Nc2ccc(C#N)cc2)n1 | < 5.05 | 5.68 |
| COc1cccc(COc2ccnc(Nc3ccc(C#N)cc3)n2)c1 | < 3.93 | 5.96 |
| N#Cc1ccc(Nc2nccc(OCc3ccccc3C(F)(F)F)n2)cc1 | < 3.76 | < 3.76 |
| N#Cc1ccc(Nc2nccc(OCc3cc(F)ccc3Br)n2)cc1 | < 3.72 | < 3.72 |
| N#Cc1ccc(COc2ccnc(Nc3ccc(C#N)cc3)n2)cc1 | < 3.68 | < 3.68 |
| CN(C)c1ccnc(Nc2ccc(C#N)cc2)n1 | < 4.47 | < 4.47 |
| N#Cc1ccc(Nc2nccc(OCc3cccc(F)c3)n2)cc1 | < 3.98 | 5.73 |
| Cc1ccc(COc2ccnc(Nc3ccc(C#N)cc3)n2)cc1 | < 4.09 | 5.14 |
| COc1ccc(COc2ccnc(Nc3ccc(C#N)cc3)n2)cc1 | < 3.99 | < 3.99 |
| N#Cc1ccc(Nc2nccc(OCc3cccnc3)n2)cc1 | < 5.19 | < 5.19 |
| N#Cc1ccc(Nc2nccc(OCc3ccc(Cl)cc3)n2)cc1 | < 3.81 | < 3.81 |
